Assay [1] deals with MV4-11. The assay can be described thus: Activity against AML cell line MV4-11 (CellTiter-Blue, 72 h). Type of assay: cell-based. Summed up: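 Suspension cells seeded at 4000 per well, left overnight, then exposed to compound from 10 nM to 100 μM for 72 h. Viability by CellTiter-Blue resazurin fluorescence after 4 h (Ex 560, Em 590); IC50 from concentration-response.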
Assay [2] concerns MV4-11. Kind of assay: In vivo efficacy, NSG mice injected with MV4-11. The settings on record: 25 mg/kg, three times per week, NSG mice with MV4-11. On the procedure: Method: Six week old female NSG mice were injected intravenously with 1×10^6 logarithmically growing MV4-11 cells expressing luciferase (MV4-11). Luciferase expressing leukemia cells were imaged using the IVIS Xenogen system (Perkin Elmer, Waltham MA). On day of imaging, mice are injected IP with 150 mg/kg luciferin (Perkin Elmer, Waltham, MA), anaesthetized and then placed in imaging chamber. Maximal luminescence is recorded and then averaged among each treatment group. Ten days post cell injection, mice were imaged and then sorted into groups so that leukemic burden was similar and dosing started. Mice were dosed either with vehicle (10% DMSO/10% Tween 20/80% saline) or 25 mg/kg of compounds three times per week for the duration of the experiment. Mice were weighed and observed five days per week and imaged once per week.

The test system of a further assay is MRC5. Kind of assay: Selectivity, proliferation IC50 (normal cell line). Format: cell-based. The settings on record: Homo sapiens, read-out: IC50 MRC5 (normal lung fibroblast). On the procedure: (§1) Cell lines were seeded into 96-well plates the afternoon prior to treatment. Approximately 18 hours later, compounds were diluted in dimethyl sulfoxide (DMSO) and added to cells. Plates were incubated for 72 hours and cells viability determined with CellTiter-Blue Cell Viability Assay (Promega, Madison, WI). Plates were read after 4 additional hours of incubation at 37° C. using plate reader (Bio-Tek, Winooski. VT). Data was analyzed and graphed using GraphPad Prism Software (Graphpad. La Jolla, CA).

For assay [3], the system named is MV4-11. The assay can be described thus: Proliferation inhibition screen at 100 nM. Type of assay: cell-based. The settings on record: 100 nM compound, FIG. 10. On the procedure: To determine inhibition at 100 nM or […], 96-well plates were seeded the afternoon before treatment. Plates were then treated with compound diluted in dimethyl sulfoxide (DMSO) as well as a DMSO control the following day for 72 hours. After this time the plates were then treated with 10 μL of CellTiter-Blue Cell Viability Assay (Promega, Madison, WI) for 4 hours. Then the plates were read on a plate reader (Bio-Tek, Winooski, VT). Data was analyzed on Excel as a percent of the DMSO vehicle.
From these cell proliferation studies, MV4-11 appeared to be more sensitive to the compounds than the other cell lines (Table 6A). […] To identify group of compounds potently inhibiting cancer cell proliferation, a lower concentration of compounds (100 nM) were used to screen against MV4-11 (FIG. 10). From these experiments, potent amide compounds A7, A10, A15, A16, A18, A20, B15 and D30 (as indicated by ***, FIG. 10) were selected. […] Typically amides that contain basic amines are included in compound libraries to improve aqueous solubility but it appears that the presence of a basic amine in the side chain of the compounds also facilitated the actual inhibition of MV4-11 proliferation.

In another assay the target is CDK6 (Homo sapiens (Human), UniProt Q00534). Kind of assay: DiscoverX Kd Elect binding. On the procedure:
(§2) HCK is expressed more in human primary leukemic stem cells than in human normal hematopoietic stem cells. […] Other protein kinases such as SYK, BRAF, p38 (p38MAPK), PDGFRα/β, FGFR1, RET, FLT4, Tie2 have also been linked to leukemia. […] Thus, it was tested if HSN286 and analogs were also targeting kinases that play critical roles in AML. […] (Table 9). The inhibition of the Src-kinase family could be important clinically because these kinases are downstream of FLT3. In the event of FLT3 mutation, the inhibition of the Src-family kinases could still lead to proliferation inhibition.

Another assay has as its target CDK9 (Homo sapiens (Human), UniProt P50750). The assay can be described thus: DiscoverX Kd Elect binding. On the procedure:
as §2

The subject of a further assay is Kasumi-1. The assay can be described thus: Selectivity, proliferation IC50. Type of assay: cell-based. The settings on record: Homo sapiens, read-out: IC50 Kasumi-1 (non-FLT3 AML line). On the procedure:
as §1

The test system of another assay is HL60. The assay can be described thus: Selectivity, proliferation IC50. Format: cell-based. The settings on record: Homo sapiens, HL-60; read-out: IC50 HL60 (acute promyelocytic leukemia). On the procedure: as §1
The next assay concerns THP1. The assay can be described thus: Selectivity, proliferation IC50. The settings on record: Homo sapiens, THP-1; read-out: IC50 THP1 (non-FLT3-driven AML line). Type of assay: cell-based. On the procedure: as §1
For a further assay, the system named is STAT3 phosphorylation. Kind of assay: Western blot in MV4-11. Type of assay: cell-based, human. On the procedure: (§3) Effect of HSW630-1 on protein expression was tested in the MV4-11 leukemia cell line. Total protein extracts were prepared using RIPA buffer (SIGMA) supplemented with Complete Mini™ protease inhibitor and PHOStop™ phosphatase inhibitors (Roche). Equal amounts of proteins (up to 25 μg) were separated on 4-12% NuPAGE gels in 1×MOPS or 1×MES buffer (Invitrogen) and transferred onto PVDF membranes (Millipore). The membrane was blocked with 5% dry milk in 1×TBS/0.1% Tween 20 (TBST) for at least 1 h at room temperature and incubated with human specific primary antibodies: FLT3, Phospho-FLT3, c-Myc (Cell Signaling Technologies), KRAS (Santa Cruz), or mouse anti-β-actin (SIGMA) overnight at 4° C. The membrane was washed 3 times in TBST and incubated with a horseradish peroxidase-conjugated secondary anti-rabbit or anti-mouse antibody (Cell Signaling Technologies) for 1 h at room temperature. Blots were again washed and the signal was detected with SuperSignal West Femto Chemiluminescent Substrate (Pierce) and exposed to HyBlot CL® autoradiography film (Denville).
(§4) To determine if the phosphorylation of FLT3, SRC kinase and downstream effectors or kinases (such as STAT3 [44], STAT5 [45] and p-38 [46]) could be affected by the compounds. […] The level of SRC kinase increased over time (amount at the 48 h time point is greater than at the 6 and 24 h time points). Unfortunately the bands for the phosphorylated SRC kinase are blurred despite repeated attempts to get clearer bands. […] From the above Western analyses, it is confirmed that the proliferation inhibition of MV4-11 is due to the inhibition of FLT3 signaling axis.

In another assay the test system is STAT5 phosphorylation. The assay can be described thus: Western blot in MV4-11. Format: cell-based, human. Here is the method: as §3, §4
A further assay concerns p-38 phosphorylation. The assay can be described thus: Western blot in MV4-11. Type of assay: cell-based, human. On the procedure: as §3, §4
On the technique in general: A western blot detects proteins with antibodies after separation by electrophoresis.

SMILES strings stand for the structures. Like-named read-outs stand apart in the source and are kept apart here. Some results are limits rather than exact numbers.

A word on the Kd: it is the equilibrium constant for the complex coming apart. Read a low Kd as tighter binding.

Sequence of CDK6 (Q00534 whole entry): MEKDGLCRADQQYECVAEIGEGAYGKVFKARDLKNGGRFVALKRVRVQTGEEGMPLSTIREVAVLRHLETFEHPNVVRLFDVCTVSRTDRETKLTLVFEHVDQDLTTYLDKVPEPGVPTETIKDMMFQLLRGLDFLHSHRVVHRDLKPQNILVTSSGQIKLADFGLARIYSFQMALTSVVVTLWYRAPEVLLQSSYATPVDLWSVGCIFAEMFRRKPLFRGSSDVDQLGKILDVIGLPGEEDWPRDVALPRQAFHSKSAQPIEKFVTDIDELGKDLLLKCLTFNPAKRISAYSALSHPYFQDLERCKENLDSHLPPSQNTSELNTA
Sequence of CDK9 (P50750 whole entry): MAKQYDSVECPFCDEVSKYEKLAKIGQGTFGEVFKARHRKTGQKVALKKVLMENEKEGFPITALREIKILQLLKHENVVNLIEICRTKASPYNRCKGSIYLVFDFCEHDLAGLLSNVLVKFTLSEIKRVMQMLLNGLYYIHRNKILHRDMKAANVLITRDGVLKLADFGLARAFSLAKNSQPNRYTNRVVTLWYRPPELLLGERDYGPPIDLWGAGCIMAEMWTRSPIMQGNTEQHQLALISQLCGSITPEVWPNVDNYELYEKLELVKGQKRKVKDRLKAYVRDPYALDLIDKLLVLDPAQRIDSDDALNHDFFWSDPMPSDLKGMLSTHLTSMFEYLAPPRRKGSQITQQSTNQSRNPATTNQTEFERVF

For `CN(C)CC(O)CNC(=O)c1ccc(C#Cc2c(N)ncc3ccc(Cl)cc23)cc1` (centres unmarked) [HSM1702], the IC50 with MV4-11 [1] (72 h, read-out: IC50 against MV4-11/uM) is 0.003 µM; in the assay on MV4-11 [1] (FIG. 1, read-out: anticancer activities (IC50) against MV4-11) it was 0.003 µM; in the assay on MV4-11 [1] (Table 2, read-out: IC50 (nM) against MV4-11 (AML cell line)) it was 0.0055 ± 0.0013 µM.
Regarding `Cc1ccc(C(=O)Nc2ccc(CN3CCN(C)CC3)c(C(F)(F)F)c2)cc1C#Cc1c(N)ncc2ccc(Cl)cc12` [HSN286], the “in-vivo efficacy (survival)” value in the assay with MV4-11 [2] is listed as “not efficacious”. Further, the IC50 in the assay with MRC5 was 1270 nM; in the assay with Kasumi-1 it was over 10000 nM; with HL60 it was 2160 nM; in the assay with THP1, 2320 nM. In the assay with MV4-11 [3], the “inhibition of MV4-11 proliferation in words” value is “potent”. Besides, the Kd on CDK6 is 28000 nM; at CDK9, 2300 nM. Also, in the assay with STAT3 phosphorylation, the “STAT3 phosphorylation (Western)” value is recorded as “inhibited”. The “STAT5 phosphorylation (Western)” value in the assay on STAT5 phosphorylation was “inhibited”. Besides, the “p-38 phosphorylation (Western)” value in the assay on p-38 phosphorylation was “inhibited”.

The values are drawn from US20250084039A1, “4-SUBSTITUTED AMINOISOQUINOLINE DERIVATIVES” (Purdue Research Foundation, priority 2016, published 2025).
